Legend:
BT-20/MUC1-C cells = assay: Expression (qRT-PCR, immunoblot) in treated BT-20/MUC1-C cells; assay type: cell-based, human; conditions: vs vehicle
Experimental: (§1) Cell culture. Human BT-549, SUM-159 and mouse Eo771 TNBC cells were propagated in RPMI1640 medium (ATCC, Manassas, Va., USA). Human MDA-MB-468 and MDA-MB-231 TNBC cells were cultured in Dulbecco's modified Eagle's medium (DMEM) (Corning, Manassas, Va., USA). Human BT-20 TNBC cells were cultured in Eagle's Minimum Essential Medium (EMEM) (ATCC). Media were supplemented with 10% heat-inactivated fetal bovine serum, 100 units/ml penicillin, and 100 μg/ml streptomycin. Authentication of the cells was performed by short tandem repeat (STR) analysis. Cells were monitored for Mycoplasma contamination by MycoAlert® Mycoplasma Detection Kit (Lonza, Rockland, Mass., USA). BT-549 and MDA-MB-231 cells were transfected with lentiviral vectors to stably express a scrambled control shRNA (CshRNA; Sigma, St. Louis, Mo., USA) and a NF-κB p65 shRNA (Sigma). Human BT-20 and mouse Eo771 cells were stably transfected to express an empty vector or one encoding MUC1-C. […]
(§2) Quantitative real-time, reverse transcriptase PCR (qRT-PCR). […]
(§3) Immunoblot analysis. […] Immunoreactive complexes were detected using horseradish peroxidase-conjugated secondary antibodies (GE Healthcare Life Sciences, Marlborough, Mass., USA) and an enhanced chemiluminescence (ECL) detection reagents (Perkin Elmer Health Sciences, Waltham, Mass., USA). […] Lysates were analyzed using the Lightswitch Luciferase Assay Kit (Active Motif).

H460 cells = assay: Gene expression (qRT-PCR) in treated H460 NSCLC cells; assay type: cell-based, human; conditions: 5 μM BAY-11-7085, 18 h, vs DMSO
Experimental: (§4) Cell culture. Human A549/KRAS(G12S), H460/KRAS(Q61H) and H1975/EGFR(L858R/T790M) NSCLC cells (ATCC) were grown in RPMI1640 medium supplemented with 10% heat-inactivated fetal bovine serum (HI-FBS), 100 μg/ml streptomycin, 100 units/ml penicillin and 2 mM L-glutamine. Authentication of the cells was performed by short tandem repeat (STR) analysis. Cells were transfected with lentiviral vectors to stably express a scrambled control shRNA (CshRNA; Sigma), a MUC1 shRNA (MUC1shRNA; Sigma), a NF-κB p65 shRNA (Sigma), MUC1-C or MUC1-C (AQA) (27, 8, 49). Cells were treated with the IκB inhibitor BAY-11-7085 (Sigma) or DMSO as the vehicle control. Cells were also treated with empty nanoparticles (NPs) or GO-203/NPs (39).
(§5) Quantitative real-time, reverse transcriptase PCR (qRT-PCR). Whole cell RNA was isolated using the RNeasy mini kit (Qiagen). The High Capacity cDNA Reverse Transcription kit (Life Technologies) was used to synthesize cDNAs from 2 μg RNA. The SYBR green qPCR assay kit and the ABI Prism Sequence Detector (Applied Biosystems) were used to amplify the cDNAs.
(§6) Immunoblot analysis. Whole cell lysates were prepared in NP-40 lysis buffer and immunoblotted with antibodies against MUC1-C (LabVision), PD-L1 (Cell Signaling Technology) and β-actin (Sigma). Horseradish peroxidase secondary antibodies and enhanced chemiluminescence (GE Healthcare) were used for the detection of immune complexes.

Eo771/MUC1-C cells = assay: Expression (qRT-PCR, immunoblot) in treated Eo771/MUC1-C cells; assay type: cell-based, mouse; conditions: vs vehicle
Experimental: as §1, §2, §3

BT-549 cells = assay: Expression (qRT-PCR, immunoblot) in treated BT-549 TNBC cells; assay type: cell-based, human; conditions: vs vehicle
Experimental: as §1, §2, §3

H1975 cells = assay: Gene expression (qRT-PCR) in treated H1975 NSCLC cells; assay type: cell-based, human; conditions: 5 μM BAY-11-7085, 18 h, vs DMSO
Experimental: as §4, §5, §6

| Compound | PD-L1 expression (BT-20/MUC1-C cells; 5 μM BAY-11-7085, 24 h) | PD-L1 expression (mRNA, qRT-PCR) (H460 cells) | TLR7 mRNA levels (H460 cells) | MUC1-C→PD-L1 response (PD-L1 mRNA and protein) (Eo771/MUC1-C cells; 5 μM BAY-11-7085, 24 h) | PD-L1 expression (BT-549 cells; 5 μM BAY-11-7085, 24 h) | PD-L1 expression (mRNA, qRT-PCR) (H1975 cells) | TLR7 mRNA levels (H1975 cells) | PD-L1 expression (BT-20/MUC1-C cells; 5 μM JQ1, 48 h) | MUC1-C→PD-L1 response (PD-L1 mRNA and protein) (Eo771/MUC1-C cells; 5 μM JQ1, 48 h) | PD-L1 expression (BT-549 cells; 5 μM JQ1, 48 h) |
| --- | --- | --- | --- | --- | --- | --- | --- | --- | --- | --- |
| CC(C)(C)c1ccc(S(=O)(=O)/C=C/C#N)cc1 [BAY-11-7085] | suppression of PD-L1 expression | suppresses PD-L1 expression | decreases in TLR7 mRNA levels | inhibited | suppression of PD-L1 expression | suppresses PD-L1 expression | decreases in TLR7 mRNA levels | – | – | – |
| Cc1sc2c(c1C)C(c1ccc(Cl)cc1)=N[C@@H](CC(=O)OC(C)(C)C)c1nnc(C)n1-2 [JQ1] | – | – | – | – | – | – | – | downregulation of PD-L1 expression | inhibited | downregulation of PD-L1 expression |

— patent publication US20200056174A1, “COMPOSITIONS AND METHODS OF TREATING CANCER” (DANA-FARBER CANCER INSTITUTE, INC., priority 2016, published 2020)
